Assay: DVS characterization of hygroscopicity and stability under different humidity
Format: physicochemical
Conditions: 25° C.
Description: The dynamic vapor sorption (DVS) graph was collected on DVS Intrinsic of SMS (Surface Measurement Systems). The relative humidity at 25° C. was corrected by the deliquescent point of LiCl, Mg(NO3)2 and KCl.
In order to evaluate the hygroscopicity and stability of anhydrous crystalline form E under different humidity conditions, DVS and XRPD tests were performed on crystalline form E samples at a constant temperature of 25° C.

CCN1C[C@]2(COC)CC[C@H](OC)[C@]34C5C[C@]6(O)[C@@H](OC)C[C@@](OC(C)=O)(C5[C@H]6OC(=O)c5ccc(OC)cc5)[C@H](C13)[C@H](OC)[C@H]24 (stereo partly drawn) [crystalline form E, (1α,6α,14α,16β)tetrahydro-8,13,14-triol-20-ethyl-1,6,16-trimethoxy-4-methoxymethyl-8-acetoxy-14-(4′-p-methoxybenzyl)-aconitane]
crystalline form before and after the DVS test (XRPD): did not change
water adsorbed (DVS) (humidity 80% RH): 0.12%
hygroscopicity (DVS, up to 80% RH): no hygroscopicity
